In US20240199648A1, “MAP4K1 INHIBITORS” (Blueprint Medicines Corporation, priority 2021, published 2024) one finds EC50 and IC50 data, which are given here for 31 molecules.

The structures appear in SMILES notation. Where two headings read alike, the source gives them in different places.

For one experiment, the system named is Primary T Cell. Nature of the experiment: T cell enhancement of cytokines: IL2 measurement (HTRF) in expanded CD3+ T cells stimulated with anti-CD3/anti-CD28. The experiment is classed as cell-based, human. Particulars: plate-bound anti-CD3 and soluble anti-CD28, 24 h, read-out: IL-2 Primary T Cell EC50. As for the experimental part: T cells are isolated from whole blood of healthy donors by immunomagnetic negative selection following manufacture's protocol (StemCell Technologies, human T cell isolation kit). Purity of isolated cells is assessed by flow cytometry and yields 95-98% CD3^+ T cells. For expansion of T cells, 1×10^6 cells/well are plated in serum free cell expansion media (ThermoFisher) containing 30U of recombinant human IL2 (R&D) and stimulated with 25 ul of CD3/CD28 beads (Invitrogen) in 24 well plates for 3-4 days. T cells are then expanded in 175 cm flasks and maintained at a cell density of 1 to 2.5×10^6 cells/ml days by addition of ⅔ of fresh media every 2-3 days. After 10-14 days, cells are frozen in BamBanker freezing media (Thermo) and stored in liquid nitrogen.
For IL2 measurement, expanded CD3+ T cells are dispensed at 100K cells/well (cultured in X-VIVO 10 Serum-free media) and are stimulated with plate-bound anti-CD3 and soluble anti-CD28 in the presence of vehicle or compound of the disclosure at various concentrations for 24 h. As outlined in the manufacturer's protocol (Cisbio), 16 μL of conditioned media is transferred to a white 384-well low volume plate. Following a 24 h incubation with the anti-IL2 antibodies, the homogenous time resolved fluorescence (HTRF) is measured.
A general note: Time-resolved FRET reads energy transfer from a long-lived donor to a nearby acceptor.

Another experiment deals with T1, MAP4K1 (HPK1) (Homo sapiens, UniProt Q92918).
T1 construct: purchased Invitrogen
The experiment is described as follows: Inhibition of MAP4K1 biochemical enzymatic activity (EZReader 2 electrophoretic mobility shift assay). Conditions: HPK1 (Invitrogen), S6K2tide 1.5 μM, 120 min; ATP 26 μM or 1000 μM (not stated which). The source says:
MAP4K1 (HPK1) and relevant off-target enzymatic activity was monitored using the Perkin Elmer electrophoretic mobility shift technology platform—the EZReader 2. […] Within the linear, steady-state phase of the kinase enzymatic reaction, the mixed pool of phosphorylated (product) and non-phosphorylated (substrate) peptides was passed through the microfluidic system of the PerkinElmer EZ Reader 2, under an applied electric potential difference. The presence of the phosphate group on the product peptide provided a difference in mass and charge between that of the substrate peptide, resulting in a separation of the substrate and product pools in the sample (Perrin et al. 2010). As the product and substrate peptide mixture passes the lasers within the instrument, these pools are detected (λex=488 nm, λem=568 nm) and resolved as separate peaks. The ratio between these peaks reflects the activity of the compound at that concentration, in that well, under those conditions.
Inhibitors were dissolved in 100% DMSO at a stock concentration of 10 mM. A 100×, 10-point, 4-fold serial dilution of each inhibitor was created in 100% DMSO either manually or on a Hamilton STAR liquid handler, starting at a relevant concentration, usually 1 mM. A volume of 0.130 μL of each concentration was transferred to the relevant wells of a 384-well plate (Greiner 781 201) in diplicate using a TTPLabtech Mosquito nano-litre dispenser. Using a Multidrop Combi, the remaining constituents of the kinase reaction were added to the 130 nL of dosed compound as follows (see table below for final reaction details):
Enzyme activity assays at the ^APPKM for ATP or 1 mM ATP: In each well of a 384-well plate, 0.1-15 nM of untreated enzyme was incubated in a total of 13 μL of buffer (100 mM HEPES pH 7.5, 0.015% Brij 35, 10 mM MgCl2, 1 mM DTT) with 1.5 μM fluorescent peptid and 20-1000 μM ATP, at 25° C., for 60-180 minutes in the presence or absence of a dosed concentration series of compound (1% DMSO final concentration). The kinase reactions were stopped by the addition of 70 μl of Stop buffer (100 mM HEPES pH 7.5, 0.015% Brij 35, 35 mM EDTA and 0.2% of Coating Reagent 3 (Caliper Lifesciences)). The plates were read on a Caliper EZReader 2 as described above.
For orientation: Mobility shift assays separate free from complexed probe on a gel.

T1 sequence (Q92918 whole entry): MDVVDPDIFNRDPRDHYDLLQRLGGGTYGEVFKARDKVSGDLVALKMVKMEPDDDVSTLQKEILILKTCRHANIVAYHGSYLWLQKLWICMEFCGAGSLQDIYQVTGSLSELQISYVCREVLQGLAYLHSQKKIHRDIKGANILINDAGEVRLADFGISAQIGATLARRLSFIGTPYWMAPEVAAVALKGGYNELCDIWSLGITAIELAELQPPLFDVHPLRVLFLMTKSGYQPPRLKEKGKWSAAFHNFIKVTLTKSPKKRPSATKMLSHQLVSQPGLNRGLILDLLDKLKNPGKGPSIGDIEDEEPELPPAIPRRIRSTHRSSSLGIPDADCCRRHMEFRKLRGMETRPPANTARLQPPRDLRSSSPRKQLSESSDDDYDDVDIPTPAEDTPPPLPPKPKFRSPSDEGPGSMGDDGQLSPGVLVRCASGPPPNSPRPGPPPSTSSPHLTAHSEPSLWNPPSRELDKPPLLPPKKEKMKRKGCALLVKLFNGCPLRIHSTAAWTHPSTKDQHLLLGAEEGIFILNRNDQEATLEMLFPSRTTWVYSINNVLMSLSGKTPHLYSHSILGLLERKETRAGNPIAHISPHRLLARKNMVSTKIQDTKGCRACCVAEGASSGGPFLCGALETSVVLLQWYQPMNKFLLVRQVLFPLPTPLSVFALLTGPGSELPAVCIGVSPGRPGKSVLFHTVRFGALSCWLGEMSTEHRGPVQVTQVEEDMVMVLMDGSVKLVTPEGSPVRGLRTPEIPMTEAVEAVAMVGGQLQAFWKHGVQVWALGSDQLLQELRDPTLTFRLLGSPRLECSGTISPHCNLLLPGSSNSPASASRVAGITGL

Turning to `COC[C@@](C)(N)c1cnc(OC2CN(C(=O)OC)C2)c2cnc(Nc3ccc4c(n3)[C@@H](C)[C@H](C)OC4=O)cc12` [Compound 121], in the experiment on Primary T Cell (Homo sapiens, T-cell, 24 h), the EC50 worked out at 41.5 nM. For the same molecule, the IC50 on MAP4K1 (HPK1) amounted to 0.2 nM. `COCC(C)(N)c1cnc(OC2CN(C(=O)C3CC3F)C2)c2cnc(Nc3ccc4c(n3)C(C)C(C)OC4=O)cc12` (single isomer, unassigned) [Compound 97]: the EC50 in the experiment with Primary T Cell came out at 50.1 nM. On MAP4K1 (HPK1), the IC50 was found to be 0.36 nM. As to `CC(C)(N)c1cnc(OC2CN(C(=O)C3CC3)C2)c2cnc(Nc3ccc4c(n3)C3(CC3)C(C)(C)OC4=O)cc12` [Compound 63], in the experiment on Primary T Cell (Homo sapiens, T-cell, 24 h), the half-maximal effective concentration (EC50) was 23.2 nM. For the same molecule, the half-inhibitory concentration (IC50) at MAP4K1 (HPK1) stood at 0.19 nM. For the molecule `CC(=O)N1CC(Oc2ncc(C(C)(C)N)c3cc(Nc4ccc5c(n4)[C@@H](C)[C@H](C)OC5=O)ncc23)C1` [Compound 1, (7S,8R)-2-((8-((1-acetylazetidin-3-yl)oxy)-5-(2-aminopropan-2-yl)-2,7-naphthyridin-3-yl)amino)-7,8-dimethyl-7,8-dihydro-5H-pyrano[4,3-b]pyridin-5-one], in the experiment with Primary T Cell (Homo sapiens, T-cell, 24 h), the EC50 is 34.7 nM. On MAP4K1 (HPK1), the IC50 was 0.18 nM.

With `COC[C@@](C)(N)c1cnc(O[C@@H]2CN(C(C)=O)[C@H]2C)c2cnc(Nc3ccc4c(n3)[C@@H](C)[C@H](C)OC4=O)cc12` [Compound 119], the EC50 with Primary T Cell (Homo sapiens, T-cell, 24 h) amounted to 90 nM. Further, the IC50 at MAP4K1 (HPK1) was 0.2 nM. For `C[C@@H]1c2nc(Nc3cc4c(C(C)(C)N)cnc(OC5CN(C(=O)[C@@H]6C[C@@H]6F)C5)c4cn3)ccc2C(=O)OC1(C)C` [Compound 12], in that order: 10.5 nM and 0.16 nM. Regarding `COCC(C)(N)c1cnc(OC2CN(C(=O)C3CC3F)C2)c2cnc(Nc3ccc4c(n3)C(C)C(C)OC4=O)cc12` (single isomer, unassigned) [Compound 96], in the experiment with Primary T Cell, the EC50 was determined as 10.3 nM. Besides, at MAP4K1 (HPK1), the IC50 was 0.09 nM. `COC[C@@](C)(N)c1ccc(OC2CN(C(C)=O)C2)c2cnc(Nc3ccc4c(n3)[C@@H](C)C(C)(C)OC4=O)cc12` [Compound 56]: the EC50 in the experiment with Primary T Cell (Homo sapiens, T-cell, 24 h) is 23.8 nM. The IC50 at MAP4K1 (HPK1) is 0.17 nM.

For the molecule `CC[C@H](N)c1cnc(O[C@H]2C[C@@H](C(=O)N3CC(OC)C3)C2)c2cnc(Nc3ccc4c(n3)[C@@H](C)C(C)(C)OC4=O)cc12` (single isomer, unassigned) [Compound 127], in the experiment with Primary T Cell (Homo sapiens, T-cell, 24 h), the EC50 turned out to be 74.2 nM. Further, at MAP4K1 (HPK1), the IC50 is 0.09 nM. With `CC[C@@H](N)c1ccc(OC2CN(C(=O)[C@@H]3C[C@@H]3F)C2)c2cnc(Nc3ccc4c(n3)[C@@H](C)C(C)(C)OC4=O)cc12` (single isomer, unassigned) [Compound 83, (R)-2-((5-((R)-1-Aminopropyl)-8-((1-((1S,2S)-2-fluorocyclopropane-1-carbonyl)azetidin-3-yl)oxy)isoquinolin-3-yl)amino)-7,7,8-trimethyl-7,8-dihydro-5H-pyrano[4,3-b]pyridin-5-one or (R)-2-((5-((S)-1-aminopropyl)-8-((1-((1S,2S)-2-fluorocyclopropane-1-carbonyl)azetidin-3-yl)oxy)isoquinolin-3-yl)amino)-7,7,8-trimethyl-7,8-dihydro-5H-pyrano[4,3-b]pyridin-5-one], in the experiment with Primary T Cell, the EC50 worked out at 23.8 nM. In addition, the IC50 on MAP4K1 (HPK1) stood at 0.11 nM.

As to `CCCC(C)(N)c1cnc(OC2CN(C(C)=O)C2)c2cnc(Nc3ccc4c(n3)[C@@H](C)C(C)(C)OC4=O)cc12` (single isomer, unassigned) [Compound 115], in the experiment with Primary T Cell (Homo sapiens, T-cell, 24 h), the EC50 is 5.4 nM. Further, on MAP4K1 (HPK1), the IC50 was 0.1 nM. For `CCC[C@@](C)(N)c1ncc(OC2CN(C(C)=O)C2)c2cnc(Nc3ccc4c(n3)CC(C)(C)OC4=O)cc12` (single isomer, unassigned) [Compound 112], in that order: 10.2 nM and 0.24 nM. The matching figures for `CC(=O)N1CC(Oc2ccc(C(C)(C)N)c3cc(Nc4ccc5c(n4)[C@@H](C)[C@H](C)OC5=O)ncc23)C1` [Compound 19]: 41.1 nM and 0.2 nM.

`C[C@@H]1c2nc(Nc3cc4c(C(C)(C)N)cnc(NC5CN(C(=O)C6CC6)C5)c4cn3)ccc2C(=O)OC1(C)C` [Compound 42]: the IC50 at MAP4K1 (HPK1) worked out at 0.33 nM. On the same count and under the same terms, next, `C[C@@H]1OC(=O)c2ccc(Nc3cc4c(C(C)(C)N)cnc(O[C@@H]5CCN(C(=O)C6CC6)C5)c4cn3)nc2[C@H]1C` [Compound 51]: 0.36 nM. Same read-out and setting: next, `COC1(C(=O)N2CC(Oc3ncc(C(C)(C)N)c4cc(Nc5ccc6c(n5)[C@@H](C)C(C)(C)OC6=O)ncc34)C2)CC1` [Compound 93]: 0.17 nM; `CO[C@@H](C)C(=O)N1CC(Oc2ncc(C(C)(C)N)c3cc(Nc4ccc5c(n4)[C@@H](C)C(C)(C)OC5=O)ncc23)C1` (single isomer, unassigned) [Compound 86]: 0.27 nM. Take `C[C@@H]1C[C@@H]1C(=O)N1CC(Oc2ncc(C(C)(C)N)c3cc(Nc4ccc5c(n4)[C@@H](C)[C@H](C)OC5=O)ncc23)C1` [Compound 44]: at MAP4K1 (HPK1), the half-maximal inhibitory concentration (IC50) amounted to 0.12 nM. The same measure, in the same setting: the same measure for `CC(=O)N1CC[C@@H](Oc2ncc(C(C)(C)N)c3cc(Nc4ccc5c(n4)[C@@H](C)[C@H](C)OC5=O)ncc23)C1` [Compound 24]: 0.89 nM. The same measure, in the same setting: next, `C[C@@H]1OC(=O)c2ccc(Nc3cc4c(C(C)(C)N)cnc(OC5CN(C(=O)[C@H]6C[C@@H]6C)C5)c4cn3)nc2[C@H]1C` [Compound 47]: 0.18 nM; `C[C@@H]1OC(=O)c2ccc(Nc3cc4c(C(C)(C)N)cnc(O[C@H]5C[C@@H](C(=O)N6CC(F)(F)C6)C5)c4cn3)nc2[C@H]1C` [Compound 98]: 0.19 nM. Same read-out and setting: next, `C[C@@H]1OC(=O)c2ccc(Nc3cc4c(C(C)(C)N)cnc(OC5CN(C(=O)[C@H]6CC6(C)C)C5)c4cn3)nc2[C@H]1C` [Compound 69]: 0.14 nM; `C[C@@H]1C[C@@H]1C(=O)N1CC(Oc2ncc(C(C)(C)N)c3cc(Nc4ccc5c(n4)[C@@H](C)C(C)(C)OC5=O)ncc23)C1` [Compound 64]: 0.16 nM. Consider `CC[C@@](C)(N)c1cnc(OC2CN(C(C)=O)C2)c2cnc(Nc3ccc4c(n3)[C@@H](C)[C@H](C)OC4=O)cc12` [Compound 23], for which the IC50 on MAP4K1 (HPK1) was found to be 0.32 nM. Turning to `C[C@@H]1c2nc(Nc3cc4c(C(C)(C)N)cnc(OC[C@@H]5C[C@@H]5C(=O)N(C)C)c4cn3)ccc2C(=O)OC1(C)C` (single isomer, unassigned) [Compound 107], on MAP4K1 (HPK1), the IC50 was 0.31 nM. As for `C[C@@H]1c2nc(Nc3cc4c(C(C)(C)N)cnc(OC5CN(C(=O)[C@@H]6CCCO6)C5)c4cn3)ccc2C(=O)OC1(C)C` [Compound 90], the IC50 on MAP4K1 (HPK1) is 0.18 nM. Take `C[C@@H]1c2nc(Nc3cc4c(C(C)(C)N)cnc(OC5CN(C(=O)[C@H]6C[C@@H]6C)C5)c4cn3)ccc2C(=O)OC1(C)C` [Compound 68]: at MAP4K1 (HPK1), the IC50 turned out to be 0.16 nM. On the same count and under the same terms, next, `CC(=O)N1CCC[C@H]1COc1ncc(C(C)(C)N)c2cc(Nc3ccc4c(n3)[C@@H](C)C(C)(C)OC4=O)ncc12` [Compound 117]: 2.02 nM; `C[C@@H]1C[C@H]1C(=O)N1CC(Oc2ncc(C(C)(C)N)c3cc(Nc4ccc5c(n4)[C@@H](C)C(C)(C)OC5=O)ncc23)C1` [Compound 66]: 0.22 nM. `CC(=O)N(C)CCOc1ncc(C(C)(C)N)c2cc(Nc3ccc4c(n3)[C@@H](C)C(C)(C)OC4=O)ncc12` [Compound 28]: the IC50 at MAP4K1 (HPK1) stood at 0.29 nM. Consider `C[C@@H]1OC(=O)c2ccc(Nc3cc4c(C(C)(C)N)cnc(O[C@H]5C[C@@H](C(=O)N6CC(F)C6)C5)c4cn3)nc2[C@H]1C` [Compound 84], for which the IC50 at MAP4K1 (HPK1) was found to be 0.24 nM.

Broadly, the EC50 is the midpoint of the concentration-response curve. As a reminder, the IC50 is the concentration needed to halve the response being measured.
